Measurements from ChEMBL document CHEMBL4177526, “Discovery and structure activity relationship of the first potent cryptosporidium FIKK kinase inhibitor” (Bioorg Med Chem, 2017).

Legend:
[1] = target: Serine/threonine-protein kinase PAK 5 (Homo sapiens) (UniProt Q9P286); experiment: Inhibition of human PAK5 (2 to 719 residues) assessed as residual activity at 500 nM in presence of 33P-ATP by filter binding assay relative to control
[2] = target: Phosphorylase b kinase gamma catalytic chain, skeletal muscle/heart isoform (Homo sapiens) (UniProt Q16816); experiment: Inhibition of human PHKgamma1 (2 to 297 residues) assessed as residual activity at 500 nM in presence of 33P-ATP by filter binding assay relative to control
Cryptosporidium parvum = experiment: Inhibition of recombinant Cryptosporidium parvum FIKK assessed as change in melting temperature at 50 uM by differential static light scattering method
[3] = test system: Ribosomal protein S6 kinase beta-1 (Homo sapiens), P23443 [T412E]; experiment: Inhibition of human S6K1 T412E mutant (1 to 421 residues) assessed as residual activity at 500 nM in presence of 33P-ATP by filter binding assay relative to control
[4] = target: Mitogen-activated protein kinase 8 (Homo sapiens) (UniProt P45983); experiment: Inhibition of human JNK1 (1 to 384 residues) assessed as residual activity at 500 nM in presence of 33P-ATP by filter binding assay relative to control
[5] = target: Tyrosine-protein kinase JAK2 (Homo sapiens) (UniProt O60674); experiment: Inhibition of JAK2 (unknown origin) assessed as residual activity at 500 nM relative to control
[6] = target: MAP/microtubule affinity-regulating kinase 3 (Homo sapiens) (UniProt P27448); experiment: Inhibition of human MARK3 (2 to 729 residues) assessed as residual activity at 500 nM in presence of 33P-ATP by filter binding assay relative to control
[7] = target: Serine/threonine-protein kinase tousled-like 1 (Homo sapiens) (UniProt Q9UKI8); experiment: Inhibition of human TLK1 (1 to 766 residues) assessed as residual activity at 500 nM in presence of 33P-ATP by filter binding assay relative to control
[8] = target: Serine/threonine-protein kinase N2 (Homo sapiens) (UniProt Q16513); experiment: Inhibition of human PRK2 (501 to 984 residues) assessed as residual activity at 500 nM in presence of 33P-ATP by filter binding assay relative to control
[9] = target: Casein kinase II subunit alpha (Homo sapiens) (UniProt P68400); experiment: Inhibition of human CK2alpha (2 to 391 residues) assessed as residual activity at 500 nM in presence of 33P-ATP by filter binding assay relative to control
[10] = target: Eukaryotic elongation factor 2 kinase (Homo sapiens) (UniProt O00418); experiment: Inhibition of human EF2K (2 to 725 residues) assessed as residual activity at 500 nM in presence of 33P-ATP by filter binding assay relative to control
[11] = target: Interleukin-1 receptor-associated kinase 4 (Homo sapiens) (UniProt Q9NWZ3); experiment: Inhibition of human IRAK4 (14 to 460 residues) assessed as residual activity at 500 nM in presence of 33P-ATP by filter binding assay relative to control
[12] = target: Serine/threonine-protein kinase SIK2 (Homo sapiens) (UniProt Q9H0K1); experiment: Inhibition of human SIK2 (2 to 926 residues) assessed as residual activity at 500 nM in presence of 33P-ATP by filter binding assay relative to control
[13] = target: Homeodomain-interacting protein kinase 3 (Homo sapiens) (UniProt Q9H422); experiment: Inhibition of human HIPK3 (161 to 562 residues) assessed as residual activity at 500 nM in presence of 33P-ATP by filter binding assay relative to control
[14] = target: Ephrin type-A receptor 4 (Homo sapiens) (UniProt P54764); experiment: Inhibition of human EPHA4 (570 to 986 residues) assessed as residual activity at 500 nM in presence of 33P-ATP by filter binding assay relative to control
[15] = target: Insulin-like growth factor 1 receptor (Homo sapiens) (UniProt P08069); experiment: Inhibition of human IGF1R (954 to 1367 residues) assessed as residual activity at 500 nM in presence of 33P-ATP by filter binding assay relative to control
[16] = target: Inhibitor of nuclear factor kappa-B kinase subunit epsilon (Homo sapiens) (UniProt Q14164); experiment: Inhibition of human IKKepsilon (1 to 716 residues) assessed as residual activity at 500 nM in presence of 33P-ATP by filter binding assay relative to control
[17] = target: Serine/threonine-protein kinase pim-1 (Homo sapiens) (UniProt P11309); experiment: Inhibition of human PIM1 (2 to 313 residues) assessed as residual activity at 500 nM in presence of 33P-ATP by filter binding assay relative to control
[18] = target: Tyrosine-protein kinase SYK (Homo sapiens) (UniProt P43405); experiment: Inhibition of human SYK (1 to 635 residues) assessed as residual activity at 500 nM in presence of 33P-ATP by filter binding assay relative to control
[19] = target: Serine/threonine-protein kinase MARK1 (Homo sapiens) (UniProt Q9P0L2); experiment: Inhibition of human MARK1 (2 to 795 residues) assessed as residual activity at 500 nM in presence of 33P-ATP by filter binding assay relative to control
[20] = target: Ephrin type-B receptor 3 (Homo sapiens) (UniProt P54753); experiment: Inhibition of human EPHB3 (565 to 984 residues) assessed as residual activity at 500 nM in presence of 33P-ATP by filter binding assay relative to control
[21] = target: Dual specificity testis-specific protein kinase 1 (Homo sapiens) (UniProt Q15569); experiment: Inhibition of human TESK1 (1 to 345 residues) assessed as residual activity at 500 nM in presence of 33P-ATP by filter binding assay relative to control
[22] = target: NUAK family SNF1-like kinase 1 (Homo sapiens) (UniProt O60285); experiment: Inhibition of human NUAK1 (2 to 660 residues) assessed as residual activity at 500 nM in presence of 33P-ATP by filter binding assay relative to control
[23] = target: Proto-oncogene tyrosine-protein kinase LCK (Mus musculus) (UniProt P06240); experiment: Inhibition of mouse LCK (2 to 509 residues) assessed as residual activity at 500 nM in presence of 33P-ATP by filter binding assay relative to control
[24] = target: Protein-tyrosine kinase 6 (Homo sapiens) (UniProt Q13882); experiment: Inhibition of human BRK (1 to 451 residues) assessed as residual activity at 500 nM in presence of 33P-ATP by filter binding assay relative to control
[25] = target: Tyrosine-protein kinase Yes (Homo sapiens) (UniProt P07947); experiment: Inhibition of human YES1 (1 to 543 residues) assessed as residual activity at 500 nM in presence of 33P-ATP by filter binding assay relative to control
[26] = Permeability in human Caco2 cells; format: ADME, cell-based; conditions: Caco-2, read-out: permeability

Activity [1]: 107%
Activity [2]: 107%
ΔTm (Cryptosporidium parvum): 5.2 °C
Activity [3]: 136%
Activity [4]: 134%
Activity [5]: 125%
Activity [6]: 121%
Activity [7]: 121%
Activity [8]: 121%
Activity [9]: 119%
Activity [10]: 115%
Activity [11]: 110%
Activity [12]: 105%
Activity [13]: 104%
Activity [14]: 104%
Activity [15]: 104%
Activity [16]: 101%
Activity [17]: 97%
Activity [18]: 95%
Activity [19]: 91%
Activity [20]: 89%
Activity [21]: 87%
Activity [22]: 86%
Activity [23]: 85%
Activity [24]: 74%
Activity [25]: 53%
Papp [26]: 11 ×10⁻⁶ cm/s
SMILES: Cc1cccc(-c2nc(N)sc2-c2ccc3ncccc3n2)c1
